Laboratory results reported in patent US8476298B2 (Exelixis, Inc., priority 2003, dated 2013).
pIC50: −log10 of the molar value.

Columns and labels:
[1] = molecular target: T1, c-Met (baculovirus expressed human c-Met kinase domain P948-S1343) (Homo sapiens, UniProt P08581); test: c-Met Luciferase-Coupled Chemiluminescent Kinase assay (LCCA); assay type: biochemical;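 also: kinase activity read as percent ATP left after reaction, by luciferase-luciferin chemiluminescence, with 1 µM ATP and 1 µM poly-EY substrate, 2 h at ambient temperature, 10-point dose-response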
T1 construct: human c-Met kinase domain P948-S1343; host or cells: baculovirus expression

[2] = molecular target: T2, KDR (baculovirus expressed human KDR kinase domain D807-V1356) (Homo sapiens, UniProt P35968); test: biochemical;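 also: Luciferase-coupled chemiluminescent kinase assay, activity read as percent ATP left after 4 h reaction at ambient temperature, ATP near KM, 10-point dose-response in 384-well plates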
T2 construct: human KDR kinase domain D807-V1356; host or cells: baculovirus expression

[3] = molecular target: T3, Flt-3 (baculovirus expressed human Flt-3 kinase domain R571-S993) (Homo sapiens, UniProt P36888); test: biochemical; details: read-out: flt3 IC50;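 also: Luciferase-coupled chemiluminescent kinase assay, activity read as percent ATP left after a 3 h reaction at room temperature, ATP near KM, 10-point dose-response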
T3 construct: human Flt-3 kinase domain R571-S993; host or cells: baculovirus expression
T3 sequence (P36888 571-993): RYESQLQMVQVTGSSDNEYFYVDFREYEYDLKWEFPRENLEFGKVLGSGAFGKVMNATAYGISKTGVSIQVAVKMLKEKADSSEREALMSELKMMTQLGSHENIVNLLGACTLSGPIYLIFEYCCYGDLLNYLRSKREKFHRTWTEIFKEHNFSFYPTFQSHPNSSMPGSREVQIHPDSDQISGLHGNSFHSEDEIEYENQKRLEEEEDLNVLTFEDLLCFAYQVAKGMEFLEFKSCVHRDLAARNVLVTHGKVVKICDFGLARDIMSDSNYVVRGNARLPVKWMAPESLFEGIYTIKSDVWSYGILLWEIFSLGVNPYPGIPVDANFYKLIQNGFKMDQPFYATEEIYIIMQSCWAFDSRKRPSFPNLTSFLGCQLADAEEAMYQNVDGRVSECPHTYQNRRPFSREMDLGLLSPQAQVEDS

T2 sequence (P35968 807-1356): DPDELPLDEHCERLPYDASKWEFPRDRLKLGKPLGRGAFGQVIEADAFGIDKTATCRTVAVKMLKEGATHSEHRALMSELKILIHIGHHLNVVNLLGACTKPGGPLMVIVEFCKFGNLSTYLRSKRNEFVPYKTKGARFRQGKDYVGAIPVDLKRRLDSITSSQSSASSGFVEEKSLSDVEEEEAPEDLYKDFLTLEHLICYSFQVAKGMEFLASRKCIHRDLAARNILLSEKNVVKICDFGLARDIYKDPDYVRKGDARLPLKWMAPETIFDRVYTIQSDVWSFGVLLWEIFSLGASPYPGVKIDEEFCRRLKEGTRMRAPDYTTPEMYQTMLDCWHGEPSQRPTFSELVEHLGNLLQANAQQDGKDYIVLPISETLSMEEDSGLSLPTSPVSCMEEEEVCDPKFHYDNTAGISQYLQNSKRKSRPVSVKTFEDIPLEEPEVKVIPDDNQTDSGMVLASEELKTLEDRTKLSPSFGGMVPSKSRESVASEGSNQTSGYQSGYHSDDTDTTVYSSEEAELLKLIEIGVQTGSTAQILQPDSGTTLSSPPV
T1 sequence (P08581 1011-1343 limits assumed): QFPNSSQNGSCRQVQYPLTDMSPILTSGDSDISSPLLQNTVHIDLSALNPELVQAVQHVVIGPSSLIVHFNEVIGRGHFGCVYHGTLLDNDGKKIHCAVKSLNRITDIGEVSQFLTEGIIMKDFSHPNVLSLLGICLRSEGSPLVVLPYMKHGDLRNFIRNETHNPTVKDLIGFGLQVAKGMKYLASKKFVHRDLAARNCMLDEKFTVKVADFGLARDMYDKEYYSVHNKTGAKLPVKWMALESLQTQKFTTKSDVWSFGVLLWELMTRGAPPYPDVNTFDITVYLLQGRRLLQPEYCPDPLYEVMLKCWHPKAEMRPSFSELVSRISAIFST

pIC50 [1] | pIC50 [2] | pIC50 [3] | SMILES
> 7.30 | > 7.30 | 6.30 to 7.30 | CCN(CC)CCCOc1cc2nccc(Oc3ccc(NC(=O)C4(C(=O)Nc5ccc(F)cc5)CC4(C)C)cc3F)c2cc1OC (stereo not drawn) [Example 372, N-(4-{[7-{[3-(diethylamino)propyl]oxy}-6-(methyloxy)quinolin-4-yl]oxy}-3-fluorophenyl)-N′-(4-fluorophenyl)-2,2-dimethylcyclopropane-1,1-dicarboxamide]
> 7.30 | > 7.30 | 5.30 to 6.30 | COc1cc2c(Oc3ccc(NC(=O)C4(C(=O)Nc5ccc(F)cc5)CC4(C)C)cc3F)ncnc2cc1OCCCN1CCOCC1 (stereo not drawn) [Example 373, N-[3-fluoro-4-({6-(methyloxy)-7-[(3-morpholin-4-ylpropyl)oxy]quinazolin-4-yl}oxy)phenyl]-N′-(4-fluorophenyl)-2,2-dimethylcyclopropane-1,1-dicarboxamide]
> 7.30 | 6.30 to 7.30 | 6.30 to 7.30 | CCN(CC)CCCOc1cc2nccc(Oc3ccc(NC(=O)[C@@]4(C(=O)Nc5ccc(F)cc5)[C@H](C)[C@@H]4C)cc3F)c2cc1OC [Example 374, (1r,2R,3S)-N-(4-{[7-{[3-(diethylamino)propyl]oxy}-6-(methyloxy)quinolin-4-yl]oxy}-3-fluorophenyl)-N′-(4-fluorophenyl)-2,3-dimethylcyclopropane-1,1-dicarboxamide]
> 7.30 | > 7.30 | 5.30 to 6.30 | CCN(CC)CCOc1cc2nccc(Oc3ccc(NC(=O)C4(C(=O)Nc5ccc(F)cc5)CC4(C)C)cc3F)c2cc1OC (stereo not drawn) [Example 375, N-(4-{[7-{[2-(diethylamino)ethyl]oxy}-6-(methyloxy)quinolin-4-yl]oxy}-3-fluorophenyl)-N′-(4-fluorophenyl)-2,2-dimethylcyclopropane-1,1-dicarboxamide]
> 7.30 | 6.30 to 7.30 | 6.30 to 7.30 | CCN(CC)CCOc1cc2nccc(Oc3ccc(NC(=O)[C@@]4(C(=O)Nc5ccc(F)cc5)[C@H](C)[C@@H]4C)cc3F)c2cc1OC [Example 376, (1r,2R,3S)-N-(4-{[7-{[2-(diethylamino)ethyl]oxy}-6-(methyloxy)quinolin-4-yl]oxy}-3-fluorophenyl)-N′-(4-fluorophenyl)-2,3-dimethylcyclopropane-1,1-dicarboxamide]
> 7.30 | > 7.30 | 6.30 to 7.30 | COc1cc2c(Oc3ccc(NC(=O)C4(C(=O)Nc5ccc(F)cc5)CC4(C)C)cc3F)ccnc2cc1OCCCN1CCOCC1 (stereo not drawn) [Example 377, N-[3-fluoro-4-({6-(methyloxy)-7-[(3-morpholin-4-ylpropyl)oxy]quinolin-4-yl}oxy)phenyl]-N′-(4-fluorophenyl)-2,2-dimethylcyclopropane-1,1-dicarboxamide]
> 7.30 | 6.30 to 7.30 | 5.30 to 6.30 | CCN(CC)CCOc1cc2ncnc(Oc3ccc(NC(=O)C4(C(=O)Nc5ccc(F)cc5)CC4(C)C)cc3F)c2cc1OC (stereo not drawn) [Example 378, N-(4-{[7-{[2-(diethylamino)ethyl]oxy}-6-(methyloxy)quinazolin-4-yl]oxy}-3-fluorophenyl)-N′-(4-fluorophenyl)-2,2-dimethylcyclopropane-1,1-dicarboxamide]
> 7.30 | > 7.30 | 5.30 to 6.30 | CCN(CC)CCCOc1cc2ncnc(Oc3ccc(NC(=O)C4(C(=O)Nc5ccc(F)cc5)CC4(C)C)cc3F)c2cc1OC (stereo not drawn) [Example 379, N-(4-{[7-{[3-(diethylamino)propyl]oxy}-6-(methyloxy)quinazolin-4-yl]oxy}-3-fluorophenyl)-N′-(4-fluorophenyl)-2,2-dimethylcyclopropane-1,1-dicarboxamide]
> 7.30 | > 7.30 | 6.30 to 7.30 | CCN(CC)CCCOc1cc2ncnc(Oc3ccc(NC(=O)C4(C(=O)Nc5ccc(F)cc5)CCC4)cc3F)c2cc1OC [Example 380, N-(4-{[7-{[3-(diethylamino)propyl]oxy}-6-(methyloxy)quinazolin-4-yl]oxy}-3-fluorophenyl)-N′-(4-fluorophenyl)cyclobutane-1,1-dicarboxamide]
> 7.30 | > 7.30 | 6.30 to 7.30 | COc1cc2c(Oc3ccc(NC(=O)C4(C(=O)Nc5ccc(F)cc5)CCC4)cc3F)ncnc2cc1OCCCN1CCN(C)CC1 [Example 381, N-{3-fluoro-4-[(6-(methyloxy)-7-{[3-(4-methylpiperazin-1-yl)propyl]oxy}quinazolin-4-yl)oxy]phenyl}-N′-(4-fluorophenyl)cyclobutane-1,1-dicarboxamide]
> 7.30 | > 7.30 | 6.30 to 7.30 | COc1cc2c(Oc3ccc(NC(=O)C4(C(=O)Nc5ccc(F)cc5)CCC4)cc3F)ncnc2cc1OCCCN1CCNCC1 [Example 382, N-[3-fluoro-4-({6-(methyloxy)-7-[(3-piperazin-1-ylpropyl)oxy]quinazolin-4-yl}oxy)phenyl]-N′-(4-fluorophenyl)cyclobutane-1,1-dicarboxamide]
> 7.30 | > 7.30 | 5.30 to 6.30 | COc1cc2c(Oc3ccc(NC(=O)C4(C(=O)Nc5ccc(F)cc5)[C@H](C)[C@H]4C)cc3F)ncnc2cc1OCCCN1CCOCC1 (stereo partly drawn) [Example 383, (2R,3R)-N-[3-fluoro-4-({6-(methyloxy)-7-[(3-morpholin-4-ylpropyl)oxy]quinazolin-4-yl}oxy)phenyl]-N′-(4-fluorophenyl)-2,3-dimethylcyclopropane-1,1-dicarboxamide]

Continued, molecule first:

SMILES | pIC50 [1] | pIC50 [2] | pIC50 [3]
COc1cc2c(Oc3ccc(NC(=O)[C@]4(C(=O)Nc5ccc(F)cc5)C[C@@H]4C)cc3F)ccnc2cc1OCCCN1CCNCC1 [Example 364, (1R,2S)-N-[3-fluoro-4-({6-(methyloxy)-7-[(3-piperazin-1-ylpropyl)oxy]quinolin-4-yl}oxy)phenyl]-N′-(4-fluorophenyl)-2-methylcyclopropane-1,1-dicarboxamide] | > 7.30 | > 7.30 | > 7.30
COc1cc2c(Oc3ccc(NC(=O)[C@@]4(C(=O)Nc5ccc(F)cc5)[C@H](C)[C@@H]4C)cc3F)ccnc2cc1OCCCN1CCOCC1 [Example 365, (1r,2R,3S)-N-[3-fluoro-4-({6-(methyloxy)-7-[(3-morpholin-4-ylpropyl)oxy]quinolin-4-yl}oxy)phenyl]-N′-(4-fluorophenyl)-2,3-dimethylcyclopropane-1,1-dicarboxamide] | > 7.30 | 6.30 to 7.30 | 6.30 to 7.30
COc1cc2c(Oc3ccc(NC(=O)[C@@]4(C(=O)Nc5ccc(F)cc5)[C@H](C)[C@@H]4C)cc3F)ccnc2cc1OCCCN1CCN(C)CC1 [Example 366, (1r,2R,3S)-N-{3-fluoro-4-[(6-(methyloxy)-7-{[3-(4-methylpiperazin-1-yl)propyl]oxy}quinolin-4-yl)oxy]phenyl}-N′-(4-fluorophenyl)-2,3-dimethylcyclopropane-1,1-dicarboxamide] | > 7.30 | 6.30 to 7.30 | 6.30 to 7.30
COc1cc2c(Oc3ccc(NC(=O)[C@@]4(C(=O)Nc5ccc(F)cc5)[C@H](C)[C@@H]4C)cc3F)ncnc2cc1OCCCN1CCOCC1 [Example 367, (1r,2R,3S)-N-[3-fluoro-4-({6-(methyloxy)-7-[(3-morpholin-4-ylpropyl)oxy]quinazolin-4-yl}oxy)phenyl]-N′-(4-fluorophenyl)-2,3-dimethylcyclopropane-1,1-dicarboxamide] | 6.30 to 7.30 | > 7.30 | 6.30 to 7.30
COc1cc2c(Oc3ccc(NC(=O)[C@@]4(C(=O)Nc5ccc(F)cc5)[C@H](C)[C@@H]4C)cc3F)ncnc2cc1OCCCN1CCN(C)CC1 [Example 368, (1r,2R,3S)-N-{3-fluoro-4-[(6-(methyloxy)-7-{[3-(4-methylpiperazin-1-yl)propyl]oxy}quinazolin-4-yl)oxy]phenyl}-N′-(4-fluorophenyl)-2,3-dimethylcyclopropane-1,1-dicarboxamide] | > 7.30 | > 7.30 | 6.30 to 7.30
COc1cc2c(Oc3ccc(NC(=O)C4(C(=O)Nc5ccc(F)cc5)CCC4)cc3F)ncnc2cc1OCCCN1CCOCC1 [Example 369, N-[3-fluoro-4-({6-(methyloxy)-7-[(3-morpholin-4-ylpropyl)oxy]quinazolin-4-yl}oxy)phenyl]-N′-(4-fluorophenyl)cyclobutane-1,1-dicarboxamide] | 6.30 to 7.30 | > 7.30 | 6.30 to 7.30
COc1cc2c(Oc3ccc(NC(=O)C4(C(=O)Nc5ccc(F)cc5)[C@H](C)[C@H]4C)cc3F)ccnc2cc1OCCCN1CCOCC1 (stereo partly drawn) [Example 370, (2R,3R)-N-[3-fluoro-4-({6-(methyloxy)-7-[(3-morpholin-4-ylpropyl)oxy]quinolin-4-yl}oxy)phenyl]-N′-(4-fluorophenyl)-2,3-dimethylcyclopropane-1,1-dicarboxamide] | > 7.30 | > 7.30 | 6.30 to 7.30
CCN(CC)CCCOc1cc2nccc(Oc3ccc(NC(=O)C4(C(=O)Nc5ccc(F)cc5)[C@H](C)[C@H]4C)cc3F)c2cc1OC (stereo partly drawn) [Example 371, (2R,3R)-N-(4-{[7-{[3-(diethylamino)propyl]oxy}-6-(methyloxy)quinolin-4-yl]oxy}-3-fluorophenyl)-N′-(4-fluorophenyl)-2,3-dimethylcyclopropane-1,1-dicarboxamide] | > 7.30 | > 7.30 | 6.30 to 7.30
